Laboratory results reported in publication doi:10.1101/2023.11.24.568596v1 (biorxiv, 2023).
Each block holds one molecule with its values, some of them ahead of it.

Columns and labels:
Conditions in all cases: binder
MST2 = biological target: T1, MST2 (Homo sapiens, UniProt Q13188)
T1 sequence (Q13188 1-491): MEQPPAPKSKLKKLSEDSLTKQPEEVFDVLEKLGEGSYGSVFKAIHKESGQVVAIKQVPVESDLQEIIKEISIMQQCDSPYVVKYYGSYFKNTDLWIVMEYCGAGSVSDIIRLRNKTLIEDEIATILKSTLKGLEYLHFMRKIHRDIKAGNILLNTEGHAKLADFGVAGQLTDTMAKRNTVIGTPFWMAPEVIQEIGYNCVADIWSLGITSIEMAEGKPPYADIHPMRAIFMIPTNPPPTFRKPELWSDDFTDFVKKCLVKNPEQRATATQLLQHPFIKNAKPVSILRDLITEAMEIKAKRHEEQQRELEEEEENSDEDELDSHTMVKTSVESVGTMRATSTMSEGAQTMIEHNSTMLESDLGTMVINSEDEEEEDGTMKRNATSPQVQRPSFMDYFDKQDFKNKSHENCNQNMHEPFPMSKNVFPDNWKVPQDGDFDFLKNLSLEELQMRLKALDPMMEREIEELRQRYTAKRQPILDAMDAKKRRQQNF

MST4 = MST4 (Homo sapiens, UniProt Q9P289)
BRPF1 = biological target: T2, BRPF1 (Homo sapiens, UniProt P55201)
T2 sequence (P55201 1-1214): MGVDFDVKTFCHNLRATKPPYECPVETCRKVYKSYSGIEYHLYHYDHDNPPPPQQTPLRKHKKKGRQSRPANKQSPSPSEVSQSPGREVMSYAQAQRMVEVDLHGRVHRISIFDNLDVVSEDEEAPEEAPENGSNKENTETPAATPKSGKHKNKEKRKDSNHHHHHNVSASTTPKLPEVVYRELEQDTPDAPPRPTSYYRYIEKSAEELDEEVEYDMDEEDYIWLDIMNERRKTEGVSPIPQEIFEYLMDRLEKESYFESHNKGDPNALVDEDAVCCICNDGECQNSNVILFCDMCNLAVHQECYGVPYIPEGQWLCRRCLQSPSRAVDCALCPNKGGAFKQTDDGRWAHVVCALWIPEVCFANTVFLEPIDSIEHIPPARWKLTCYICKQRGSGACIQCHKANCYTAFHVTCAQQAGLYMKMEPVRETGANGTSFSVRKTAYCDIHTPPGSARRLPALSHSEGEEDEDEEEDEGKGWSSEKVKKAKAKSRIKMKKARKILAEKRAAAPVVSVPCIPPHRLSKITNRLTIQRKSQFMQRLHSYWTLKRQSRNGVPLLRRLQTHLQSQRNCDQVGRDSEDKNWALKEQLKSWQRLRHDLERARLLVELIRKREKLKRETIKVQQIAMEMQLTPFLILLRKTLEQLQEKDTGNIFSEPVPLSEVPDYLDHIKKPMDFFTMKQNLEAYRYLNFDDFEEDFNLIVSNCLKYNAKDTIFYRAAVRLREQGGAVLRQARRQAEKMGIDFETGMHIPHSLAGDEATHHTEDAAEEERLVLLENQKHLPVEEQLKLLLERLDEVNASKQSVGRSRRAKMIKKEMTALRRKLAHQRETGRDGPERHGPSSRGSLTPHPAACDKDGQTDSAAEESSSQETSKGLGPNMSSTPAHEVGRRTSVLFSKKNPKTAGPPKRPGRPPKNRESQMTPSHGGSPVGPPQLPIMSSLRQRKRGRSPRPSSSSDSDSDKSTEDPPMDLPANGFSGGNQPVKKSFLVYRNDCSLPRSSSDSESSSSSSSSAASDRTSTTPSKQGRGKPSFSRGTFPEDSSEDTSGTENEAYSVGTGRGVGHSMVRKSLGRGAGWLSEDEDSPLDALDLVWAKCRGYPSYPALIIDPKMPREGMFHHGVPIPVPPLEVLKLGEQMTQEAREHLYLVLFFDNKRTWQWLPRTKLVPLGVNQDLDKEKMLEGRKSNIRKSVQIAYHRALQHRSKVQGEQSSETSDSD

NQO2A = biological target: T3, NQO2A (Homo sapiens, UniProt P16083)
T3 sequence (P16083 1-231): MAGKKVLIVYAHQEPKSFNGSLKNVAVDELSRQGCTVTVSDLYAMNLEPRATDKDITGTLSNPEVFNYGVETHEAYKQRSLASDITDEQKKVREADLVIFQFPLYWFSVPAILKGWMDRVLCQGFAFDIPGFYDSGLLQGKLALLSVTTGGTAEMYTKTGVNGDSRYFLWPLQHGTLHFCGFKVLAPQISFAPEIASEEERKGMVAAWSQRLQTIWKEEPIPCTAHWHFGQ

EphA4 = EphA4 (Homo sapiens, UniProt P54764)
HIPK2 = HIPK2 (Homo sapiens, UniProt Q9H2X6)
FECH = biological target: T4, FECH (Homo sapiens, UniProt P22830)
T4 sequence (P22830 1-423): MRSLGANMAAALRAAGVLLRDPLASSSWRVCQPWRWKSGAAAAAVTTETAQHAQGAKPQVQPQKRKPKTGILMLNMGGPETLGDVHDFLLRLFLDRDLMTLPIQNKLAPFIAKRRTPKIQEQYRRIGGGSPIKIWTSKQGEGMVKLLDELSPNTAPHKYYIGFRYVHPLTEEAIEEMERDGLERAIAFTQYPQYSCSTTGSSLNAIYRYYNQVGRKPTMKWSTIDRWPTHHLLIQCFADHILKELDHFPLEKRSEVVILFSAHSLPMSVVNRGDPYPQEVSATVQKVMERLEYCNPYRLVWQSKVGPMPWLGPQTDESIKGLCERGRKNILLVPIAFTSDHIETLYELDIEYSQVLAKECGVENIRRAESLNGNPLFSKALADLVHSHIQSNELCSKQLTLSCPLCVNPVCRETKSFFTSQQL

CK1e = CK1e (Homo sapiens, UniProt P49674)
MSSK1 = MSSK1 (Homo sapiens, UniProt Q9UPE1)
Sequence of MSSK1 (Q9UPE1 whole entry): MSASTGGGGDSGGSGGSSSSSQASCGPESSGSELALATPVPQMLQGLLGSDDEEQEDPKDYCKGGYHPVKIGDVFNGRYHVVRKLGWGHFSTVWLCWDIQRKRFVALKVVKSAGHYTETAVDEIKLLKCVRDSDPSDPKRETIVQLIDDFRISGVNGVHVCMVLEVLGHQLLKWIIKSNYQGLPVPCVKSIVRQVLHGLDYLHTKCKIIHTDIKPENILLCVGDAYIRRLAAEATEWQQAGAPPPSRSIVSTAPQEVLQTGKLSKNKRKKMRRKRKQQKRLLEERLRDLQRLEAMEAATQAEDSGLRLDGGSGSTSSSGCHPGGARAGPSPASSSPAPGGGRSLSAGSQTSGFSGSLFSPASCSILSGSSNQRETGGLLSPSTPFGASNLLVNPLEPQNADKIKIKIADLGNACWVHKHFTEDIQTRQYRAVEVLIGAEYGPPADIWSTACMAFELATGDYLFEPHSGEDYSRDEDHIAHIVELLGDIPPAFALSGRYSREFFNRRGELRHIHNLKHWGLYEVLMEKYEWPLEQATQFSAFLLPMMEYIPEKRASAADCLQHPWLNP

Sequence of HIPK2 (Q9H2X6 whole entry): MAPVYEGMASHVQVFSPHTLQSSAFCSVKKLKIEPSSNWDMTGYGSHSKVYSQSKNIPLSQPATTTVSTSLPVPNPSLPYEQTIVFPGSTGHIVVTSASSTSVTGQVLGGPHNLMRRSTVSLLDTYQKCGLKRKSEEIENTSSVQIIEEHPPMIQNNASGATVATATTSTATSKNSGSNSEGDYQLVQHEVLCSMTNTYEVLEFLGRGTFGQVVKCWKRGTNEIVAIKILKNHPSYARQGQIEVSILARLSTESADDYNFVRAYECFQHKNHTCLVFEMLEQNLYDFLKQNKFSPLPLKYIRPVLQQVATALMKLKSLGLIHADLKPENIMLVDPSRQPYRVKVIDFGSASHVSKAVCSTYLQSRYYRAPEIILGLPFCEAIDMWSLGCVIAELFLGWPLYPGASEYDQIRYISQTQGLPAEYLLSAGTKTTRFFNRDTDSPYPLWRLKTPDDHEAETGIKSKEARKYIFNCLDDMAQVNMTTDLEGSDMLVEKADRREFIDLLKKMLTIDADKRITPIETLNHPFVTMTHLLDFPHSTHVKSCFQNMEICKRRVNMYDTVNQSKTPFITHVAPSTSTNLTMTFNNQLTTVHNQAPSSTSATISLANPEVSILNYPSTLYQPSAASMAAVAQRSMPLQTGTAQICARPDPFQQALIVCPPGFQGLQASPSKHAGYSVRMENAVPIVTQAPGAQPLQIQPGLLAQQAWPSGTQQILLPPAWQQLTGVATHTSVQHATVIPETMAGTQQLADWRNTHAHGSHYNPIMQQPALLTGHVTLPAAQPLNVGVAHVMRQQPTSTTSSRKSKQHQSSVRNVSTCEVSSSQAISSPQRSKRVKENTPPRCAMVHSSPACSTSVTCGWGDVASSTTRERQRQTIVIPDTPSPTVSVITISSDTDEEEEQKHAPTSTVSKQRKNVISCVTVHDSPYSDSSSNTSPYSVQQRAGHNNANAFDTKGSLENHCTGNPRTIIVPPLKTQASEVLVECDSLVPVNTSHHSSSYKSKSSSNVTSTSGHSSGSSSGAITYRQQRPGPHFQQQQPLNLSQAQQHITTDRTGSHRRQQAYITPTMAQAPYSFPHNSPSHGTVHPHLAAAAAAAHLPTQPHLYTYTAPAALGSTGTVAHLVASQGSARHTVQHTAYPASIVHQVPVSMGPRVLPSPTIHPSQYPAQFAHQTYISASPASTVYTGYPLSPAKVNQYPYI
Sequence of CK1e (P49674 whole entry): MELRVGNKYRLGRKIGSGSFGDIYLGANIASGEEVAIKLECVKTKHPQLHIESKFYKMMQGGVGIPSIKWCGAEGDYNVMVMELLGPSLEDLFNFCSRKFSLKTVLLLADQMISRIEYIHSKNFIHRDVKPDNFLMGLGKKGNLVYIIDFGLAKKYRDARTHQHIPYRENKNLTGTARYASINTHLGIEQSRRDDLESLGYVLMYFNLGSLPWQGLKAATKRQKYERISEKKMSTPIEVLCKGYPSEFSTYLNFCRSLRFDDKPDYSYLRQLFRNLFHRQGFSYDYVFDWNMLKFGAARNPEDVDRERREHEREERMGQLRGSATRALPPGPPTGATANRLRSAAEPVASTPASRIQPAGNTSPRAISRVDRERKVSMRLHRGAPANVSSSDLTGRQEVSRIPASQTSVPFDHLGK
Sequence of MST4 (Q9P289 whole entry): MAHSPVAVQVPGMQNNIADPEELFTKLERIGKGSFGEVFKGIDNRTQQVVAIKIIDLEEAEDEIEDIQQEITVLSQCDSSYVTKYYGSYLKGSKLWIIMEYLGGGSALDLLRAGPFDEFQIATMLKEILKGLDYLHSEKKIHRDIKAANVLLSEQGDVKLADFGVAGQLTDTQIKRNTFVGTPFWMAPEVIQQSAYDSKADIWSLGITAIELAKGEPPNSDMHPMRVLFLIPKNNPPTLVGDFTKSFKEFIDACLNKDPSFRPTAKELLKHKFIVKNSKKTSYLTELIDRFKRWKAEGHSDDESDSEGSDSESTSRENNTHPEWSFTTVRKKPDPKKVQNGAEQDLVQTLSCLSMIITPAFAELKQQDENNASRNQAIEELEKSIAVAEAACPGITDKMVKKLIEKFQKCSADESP
Sequence of EphA4 (P54764 whole entry): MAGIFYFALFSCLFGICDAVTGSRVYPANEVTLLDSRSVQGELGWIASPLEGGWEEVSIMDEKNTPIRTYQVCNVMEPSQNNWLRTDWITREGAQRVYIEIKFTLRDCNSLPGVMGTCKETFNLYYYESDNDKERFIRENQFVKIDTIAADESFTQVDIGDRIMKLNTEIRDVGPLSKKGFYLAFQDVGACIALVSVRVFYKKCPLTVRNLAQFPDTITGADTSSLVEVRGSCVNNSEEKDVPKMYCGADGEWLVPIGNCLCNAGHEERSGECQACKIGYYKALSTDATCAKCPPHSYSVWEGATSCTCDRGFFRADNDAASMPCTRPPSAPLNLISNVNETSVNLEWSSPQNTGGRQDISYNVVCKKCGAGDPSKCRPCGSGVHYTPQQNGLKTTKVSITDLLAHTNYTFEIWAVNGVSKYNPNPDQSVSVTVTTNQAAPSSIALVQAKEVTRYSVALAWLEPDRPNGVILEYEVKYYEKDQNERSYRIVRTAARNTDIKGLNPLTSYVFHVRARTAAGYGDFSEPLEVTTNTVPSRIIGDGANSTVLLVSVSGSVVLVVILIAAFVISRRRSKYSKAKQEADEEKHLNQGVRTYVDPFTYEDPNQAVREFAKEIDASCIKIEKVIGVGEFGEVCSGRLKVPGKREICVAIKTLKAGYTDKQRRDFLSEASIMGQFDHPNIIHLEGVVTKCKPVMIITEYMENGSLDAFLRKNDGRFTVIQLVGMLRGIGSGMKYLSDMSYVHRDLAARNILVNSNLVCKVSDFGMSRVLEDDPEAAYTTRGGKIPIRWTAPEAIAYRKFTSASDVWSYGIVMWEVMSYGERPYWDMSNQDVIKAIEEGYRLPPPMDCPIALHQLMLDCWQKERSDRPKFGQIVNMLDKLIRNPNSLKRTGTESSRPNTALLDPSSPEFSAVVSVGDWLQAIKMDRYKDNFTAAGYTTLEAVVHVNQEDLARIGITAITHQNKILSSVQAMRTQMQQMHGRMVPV

dTm MST2 (MST2): 7.9 °C | dTm MST4 (MST4): 11.4 °C
Compound: CNc1ncc2cc(-c3ccc(-c4cccc(C)n4)cc3Cl)c(=O)n(CCCCN)c2n1 [compound 20, MRLW5]

ΔTm MR24 (24) (BRPF1): -1.5 °C | ΔTm MR24 (24) (NQO2A): 0.3 °C | ΔTm MR24 (24) (EphA4): -0.3 °C | ΔTm MR24 (24) (HIPK2): 0.4 °C | ΔTm MR24 (24) (FECH): -0.5 °C | ΔTm MR24 (24) (CK1e): 6.4 °C | ΔTm MR24 (24) (MSSK1): -0.2 °C
Compound: Cc1cccc(-c2ccc(-c3cc4cnc(NC(CO)CO)nc4n(CCCCN)c3=O)c(Cl)c2)n1 [compound 24, 8-(4-Aminobutyl)-6-(2-chloro-4-(6-methylpyridin-2-yl)phenyl)-2-((1,3-dihydroxypropan-2-yl)amino)pyrido[2,3-d]pyrimidin-7(8H)-one]

dTm MST2 (MST2): 10.8 °C | dTm MST4 (MST4): 8.2 °C | ΔTm 23 (BRPF1): -1.8 °C | ΔTm 23 (EphA4): 2.9 °C | ΔTm 23 (HIPK2): 2.1 °C
Compound: CNc1ncc2cc(-c3ccc(-c4cccc(C)n4)cc3Cl)c(=O)n(C[C@H]3CC[C@H](N)CC3)c2n1 [compound 23, 23]

ΔTm 25 (BRPF1): -1.4 °C | ΔTm 25 (NQO2A): 0.5 °C | ΔTm 25 (EphA4): 1.8 °C | ΔTm 25 (HIPK2): 0.8 °C | ΔTm 25 (FECH): 3.0 °C | ΔTm 25 (CK1e): 8.0 °C | ΔTm 25 (MSSK1): -0.4 °C
Compound: Cc1cccc(-c2ccc(-c3cc4cnc(NCCCc5ccc(N)cc5)nc4n(CCCCN)c3=O)c(Cl)c2)n1 [compound 25, 8-(4-Aminobutyl)-2-((3-(4-aminophenyl)propyl)amino)-6-(2-chloro-4-(6-methylpyridin-2-yl)phenyl)pyrido[2,3-d]pyrimidin-7(8H)-one]

ΔTm MR26 (26) (BRPF1): -1.0 °C | ΔTm MR26 (26) (NQO2A): 0.1 °C | ΔTm MR26 (26) (EphA4): 2.5 °C | ΔTm MR26 (26) (HIPK2): 0.4 °C | ΔTm MR26 (26) (FECH): 0.3 °C | ΔTm MR26 (26) (CK1e): 7.3 °C | ΔTm MR26 (26) (MSSK1): -0.3 °C
Compound: Cc1cccc(-c2ccc(-c3cc4cnc(NCCCN5CCOCC5)nc4n(CCCCN)c3=O)c(Cl)c2)n1 [compound 26, MR26]

dTm MST2 (MST2): 8.0 °C | dTm MST4 (MST4): 7.8 °C | ΔTm 22 (BRPF1): -0.4 °C | ΔTm 22 (NQO2A): -0.1 °C | ΔTm 22 (EphA4): 2.5 °C | ΔTm 22 (HIPK2): 2.3 °C | ΔTm 22 (FECH): -0.3 °C | ΔTm 22 (CK1e): 6.8 °C | ΔTm 22 (MSSK1): -0.1 °C
Compound: CNc1ncc2cc(-c3ccc(-c4cccc(C)n4)cc3Cl)c(=O)n(CCC3CCNCC3)c2n1 [compound 22, 6-(2-Chloro-4-(6-methylpyridin-2-yl)phenyl)-2-(methylamino)-8-(2-(piperidin-4-yl)ethyl)pyrido[2,3-d]pyrimidin-7(8H)-one]
